The results in this text go back to ChEMBL document CHEMBL1833843, “Diarylpropanes and an arylpropyl quinone from Combretum griffithii” (J Nat Prod, 2011).

One experiment relates to KB. The experiment can be described thus: Cytotoxicity against human KB cells by sulforhodamine B assay. It is filed as functional, cell-based. (In general: In SRB staining, fixed cells bind dye roughly in proportion to their protein.)
In experiment [1] the test system is Plasmodium falciparum. Put plainly: Antimalarial activity against multidrug-resistant Plasmodium falciparum K1 assessed as [3H]-hypoxanthine uptake at 10 ug/mL after 24 hrs by scintillation counting. It is filed as functional, organism-based.
Experiment [2] deals with Mycobacterium tuberculosis. The experiment can be described thus: Antimycobacterial activity against Mycobacterium tuberculosis H37Ra by microplate alamar blue assay. It is filed as functional. Background: The colour change of resazurin is a common sign of viable cells or microbes.
The test system of experiment [3] is Plasmodium falciparum. The experiment can be described thus: Antimalarial activity against multidrug-resistant Plasmodium falciparum K1 assessed as [3H]-hypoxanthine uptake after 24 hrs by scintillation counting.
The subject of a further experiment is NCI-H187. The experiment can be described thus: Cytotoxicity against human NCI-H187 cells by sulforhodamine B assay. It is filed as functional, cell-based.
The subject of the next experiment is MCF7. Put plainly: Cytotoxicity against human MCF7 cells by sulforhodamine B assay. Format: functional, cell-based.

Values after ≈ are worked out from the molar mass of the structure shown. Active and inactive are the calls of the source.

By IC50 is commonly meant the point on the concentration scale where inhibition reaches its midpoint. As usually defined, the MIC is the smallest concentration in the dilution series that meets the test's criterion for growth inhibition. With `COc1ccc(CCCc2ccc(O)c(OC)c2)c(O)c1`, in the experiment on KB, the IC50 came to 2.18 µg/mL (≈ 7.56 µM). The result in the experiment with Plasmodium falciparum [1] was inactive. Moreover, the minimal inhibitory concentration (MIC) in experiment [2] was determined as 3.13 µg/mL (≈ 10.9 µM).

In the case of `COc1cc(O)c(O)cc1CCCc1ccc(OC)c(OC)c1`, the outcome with Plasmodium falciparum [1] was inactive.

On to `C[C@H]1[C@@H](O)O[C@@H]2O[C@@]3(C)CC[C@H]4[C@H](C)CC[C@@H]1[C@@]24OO3` [ARTENIMOL], for which, in the experiment on Plasmodium falciparum [3], the IC50 was determined as 1 ng/mL (≈ 0.00352 µM).

`COc1cc(CCCc2cc(OC)c(O)cc2OC)ccc1O` [GRIFFITHANE A]: the IC50 in the experiment with KB was determined as 2.13 µg/mL (≈ 6.69 µM). The outcome in the experiment on Plasmodium falciparum [1] was inactive.

Consider `COc1cc(CCCc2ccc(OC)c(O)c2OC)ccc1O` [GRIFFITHANE B], for which the half-maximal inhibitory concentration (IC50) in the experiment with KB was found to be 5.67 µg/mL (≈ 17.8 µM). Besides, in the experiment with Plasmodium falciparum [1], the outcome was inactive.

For `COC1=CC(=O)C(CCCc2ccc(O)c(OC)c2)=CC1=O` [GRIFFITHANE D], the results for the 50% inhibitory concentration (IC50) in the experiment with NCI-H187, in the experiment on MCF7 and in the experiment with KB were 1.08 µg/mL (≈ 3.57 µM), 6.75 µg/mL (≈ 22.3 µM) and 1.42 µg/mL (≈ 4.7 µM), respectively. In the experiment with Plasmodium falciparum [1], the result was inactive.

`NNC(=O)c1ccncc1` [ISONIAZID]: the MIC in experiment [2] is 0.23 µg/mL (≈ 1.68 µM).
